Columns and labels:
laser-induced CNV = assay: laser-induced mouse model of choroidal neovascularization (CNV), CNV size by confocal microscopy; assay type: in vivo, C57BL/6 mice; details: for reduction in CNV size compared to control: p<0.005; for neovascular complex in laser spots, confocal micrograph: compared to control; for reduction of CNV size compared to control mice: injected subretinally into the eye, 5 μg; for reduction of CNV size compared to control mice / decrease in CNV size compared to control mice: control PBS; for decrease in CNV size compared to control mice: day 7 after laser; for effect on CNV size compared among adiponectin peptides (words): mouse model of CNV, route not stated
Method: Animals (C57BL/6 mice) were divided into 3 groups. CNV was induced by laser photocoagulation in group 1 (n=5) with the krypton red laser (50 μm spot size; 0.05 s duration; 250 mW), as previously described (Bora et al. 2003 Proc. Natl. Acad. Sci. USA 100:2679-2685; Bora et al. 2005 J. Immunol. 174:491-497) and no APN was administered to these mice. Three laser spots were placed in each eye close to the optic nerve. In group 2 (n=5), the mice were treated, i.p., with 25 μg of rAPN, one day before laser photocoagulation and every day after laser treatment until day 6. Group 3 animals received subretinal injections on days 0, 1, and 3 in one eye, the other eye received PBS as control. All the experiments were repeated three times.
We injected 50 μg peptide NH2-LQVYGDGDHNGLYADNVN-COOH (SEQ ID NO: 1, synthesized at Peptide Biochemical Research Inc. Seattle, USA; dissolved in PBS) intraperitoneally (i.p.) to mice (n=5) as well as intravitreally (i-vit.). Six i.p. injections were given, one preceding laser treatment and five following the laser treatment. Control group was given sterile PBS. One group (n=5) was photocoagulated on day 0 and on day 1 a single 30 μg i-vit. injection was given. All the experiments were repeated three times. Mice were sacrificed following perfusion with FITC dextran on day 7 and eyes removed and fixed in formaldehyde. Choroidal-scleral flat mounts were prepared and processed for immunostaining. Laser confocal micrographs were used to measure the size of CNV by Image-Pro-Plus software (Media Cybernetics, Inc. Silver Spring, Md.).
Seven days after laser treatment, the eyes of all animals were perfused with 1 ml of PBS containing 50 mg/ml fluorescein-labeled dextran (FITC-dextran; average molecular mass, 2×10^6; Sigma-Aldrich) and the animals were sacrificed. The eyes were harvested and fixed in 10% phosphate-buffered formalin, and retinal pigment epithelium (RPE)-choroid-scleral flat mounts were prepared as previously described (Bora et al. 2003 supra; Bora et al. 2005 supra.). RPE-choroid-scleral flat mounts were stained for elastin using a mAb specific for elastin (1.0 mg/ml; 1/2000 dilution; Sigma-Aldrich) followed by a Cy3-labeled secondary Ab (1.0 mg/ml; 1/2000 dilution; Sigma-Aldrich). The incidence and the size of CNV were determined by confocal microscopy. The size of the CNV complex was graded by morphometric analysis of the images (MetaMorph Image Analysis software package; Universal Imaging) obtained from confocal microscopy.

VEGF = assay: RT-PCR of VEGF mRNA in choroids of laser-treated mice; assay type: in vivo, C57BL/6 mice; details: APN administered vs laser-treated mice without APN; FIG. 5; listed as APN
Method: Ten laser spots were placed in each eye of C57BL/6 mice as described below. Animals from each group (n=10/each time point) were sacrificed at days 1, 3, 5, and 7 post-laser treatment, RPE-choroid-scleral tissues harvested from the enucleated eyes were pooled separately for each time point and without laser treatment (control), and total RNA was prepared using SV Total RNA Isolation kit (Promega, Madison, Wis.). Equal amounts of the total RNA (0.2 μg) were used to detect the mRNA levels of GAPDH, VEGF, β-FGF and APN by RT-PCR using the reagents purchased from Applied Biosystems. The sense and antisense oligonucleotide primers were synthesized at Integrated DNA Technologies, and PCR used 30 cycles. The negative controls consisted of omission of RNA or reverse transcriptase in the reaction mixture. PCR products were analyzed on a 2% agarose gel and were examined by using the Molecular Analyst/PC program (Bio-Rad). RT-PCR was conducted using the following primers: GAPDH (forward (F), 5′-[…]-3′, SEQ ID NO; 5; reverse (R), 5′-[…]-3′, SEQ ID NO: 6); VEGF (F, 5′-GCGGGCTGCCTCGCAGTC-3′, SEQ ID NO: 7; R, 5′-[…]-3′, SEQ ID NO: 8); β-FGF (F, 5′-[…]-3′, SEQ ID NO: 9; R, 5′-[…]-3′, SEQ ID NO: 10); TGF-β2 (F, 5′-[…]-3′, SEQ ID NO: 11; R, 5′-[…]-3′, SEQ ID NO: 12); APN (F, 5′-[…]-3′, SEQ ID NO: 13; R, 5′-[…]-3′, SEQ ID NO: 14)

[1] = intraperitoneal (i.p.) injection, 25 μg rAPN or 50 μg 18 mer peptide

Molecule	reduction in CNV size compared to control (laser-induced CNV; i-vit injection, single dose a day after laser, FIG. 7B)	reduction in CNV size compared to control (laser-induced CNV; i.p. injection, 50 μg/mouse, six daily injections, FIG. 7A)	neovascular complex in laser spots, confocal micrograph (laser-induced CNV; i.p. injection)	reduction of CNV size compared to control mice (laser-induced CNV) [%]	decrease in CNV size compared to control mice (laser-induced CNV; [1]) [%]	neovascular complex in laser spots, confocal micrograph (laser-induced CNV; intravitreal injection)	decrease in CNV size compared to control mice (laser-induced CNV; intravitreal injection)	effect on CNV size compared among adiponectin peptides (words) (laser-induced CNV)	effect on CNV size compared among adiponectin peptides (words) (laser-induced CNV; listed as 18 mer synthetic peptide)	decrease in CNV size compared to control mice (laser-induced CNV; intravitreal injection, listed as APN) [%]	VEGF expression in the choroids of laser-treated mice (VEGF)
NH2-LQVYGDGDHNGLYADNVN-COOH (H-LQVYGDGDHNGLYADNVN-OH) [18 mer peptide, 18 mer synthetic peptide, amino acid residues 216-233 of mouse adiponectin globular domain]	significant reduction	significant reduction	significantly inhibited	70	~80	significantly inhibited	about 70%	as effective as the intact adiponectin protein	reduced the size of CNV similarly	–	–
rAPN: mouse recombinant adiponectin polypeptide of about 30 kDa obtained from BioVision Research Products (protein, UniProt Q60994 18-247, looked up) Adiponectin: EDDVTTTEELAPALVPPPKGTCAGWMAGIPGHPGHNGTPGRDGRDGTPGEKGEKGDAGLLGPKGETGDVGMTGAEGPRGFPGTPGRKGEPGEAAYVYRSAFSVGLETRVTVPNVPIRFTKIFYNQQNHYDGSTGKFYCNIPGLYYFSYHITVYMKDVKVSLFKKDKAVLFTYDQYQEKNVDQASGSVLLHLEVGDQVWLQVYGDGDHNGLYADNVNDSTFTGFLLYHDTN	–	–	significantly inhibited	70	80	–	about 70%	reduced the size of CNV similarly	–	70	inhibited VEGF expression
